{"source": "paper PMC12668138", "about": "“First-in-line 3D-printed intravaginal ring for nonhormonal contraception” (Research Square, 2025)", "key": {"sperm [1]": {"tested_on": "sperm", "experiment": "Time-response sperm motility assay (single compounds, 1:1 dilution)", "format": "cell-based, human", "protocol": "A time-response experiment was conducted to assess the impact of contraceptive compounds on sperm motility at various time points following incubation. Sperm samples were incubated with varying concentrations of LA or GML (1:1 dilution ratio) for 30 secs, 10, 30, 60, and 120 minutes. Concentrations of GML were selected based on the critical micelle concentration (CMC) of 16.4 μg/mL.[43] Each sample was examined under a phase-contrast microscope, and sperm motility was assessed manually."}, "[2]": {"set-up": "method as in PMID 26585883", "settings": "cited from earlier work"}, "[3]": {"experiment": "Saturation solubility in relevant solvents and release media", "format": "physicochemical", "settings": "thermodynamic from solid, read-out: GML Saturation Solubility", "protocol": "Approximately 20 mg samples of GML were weighed into microcentrifuge tubes and 100 μL of solvent (n=3) was subsequently added. Samples were vortexed and assessed visually to determine dissolution progress. As dissolution occurred, an additional 20 mg of GML was added until complete saturation was reached. All samples were then stored, protected from light, overnight to confirm complete saturation. […] The supernatant samples were diluted with MeOH and drug concentration was subsequently analyzed via LC-MS as described above."}, "[4]": {"tested_on": "Human vaginal epithelial cells, VK2/E6E7", "experiment": "In vitro cytotoxicity, MTS assay", "format": "cell-based", "settings": "24 hrs", "protocol": "Human vaginal epithelial cells, VK2/E6E7 (ATCC® CRL-2616™), were used to evaluate GML’s effect on cell viability. VK2 cells were propagated in Gibco™ Keratinocyte SFM (1×) media (Cat# 17005042, ThermoFisher Scientific, MA, USA) supplemented with 0.1 ng/mL epidermal growth factor, 50 μg/mL bovine pituitary extract, 0.4 mM CaCl2, and 1% penicillin and streptomycin (P/S; Cat# 15140–122, Gibco). Cells were incubated with varying concentrations of GML for 24 hrs at 37°C. Cell viability was assessed using CellTiter 96® AQueous Non-Radioactive Cell Proliferation (MTS) Assay (Cat# G5421, Promega, WI, USA) per manufacturer instructions."}, "sperm [5]": {"tested_on": "sperm", "experiment": "Modified Sander-Cramer assay, 1:1 semen:compound, with recovery", "format": "cell-based, human", "settings": "for MEC: 30 sec exposure, 1:1 dilution ratio (50 μL semen + 50 μL compound)", "protocol": "(§1) Semen samples were collected from consented healthy male donors by masturbation after 2–5 days of sexual abstinence. The protocol was approved by the Eastern Virginia Medical School’s Institutional Review Board (IRB) at the Macon & Joan Brock Virginia Health Sciences, Old Dominion University. Semen analysis was performed according to WHO guidelines.[44]\n(§2) The highest spermicidal dilution and minimum effective concentration (MEC) for the test compounds were determined using the modified Sander-Cramer (SCr) assay.[45] […] Briefly, 250 μL of test compounds were incubated with 50 μL of semen for 30 sec at room temperature (RT). During the incubation period, each sample was examined under a phase-contrast microscope (E600 Nikon Eclipse, Melville, MY) for the presence of motile sperm. To evaluate the protective effect of seminal plasma, 50 μL of test compounds were incubated with 50 μL of semen (1:1 dilution ratio) for 30 sec at room temperature (RT). If any motile sperm (i.e. progressive, twitching, etc.) were found within 30 seconds, then the dilution was recorded as ‘Failed’. If no motile sperm were found, the dilution was considered as ‘Pass.’ The results from 4–6 independent experiments were combined, and the highest spermicidal dilution and MEC were calculated as MEC=initialconcentration/highestspermicidaldilution and presented as Mean ± SE.\n(§3) To see whether the sperm immobilizing effect of the compounds was reversible, 1 mL of warmed Ham’s F-10 media (Millipore Sigma, MA, USA) supplemented with 1% Human Serum Albumin (HSA) (Millipore Sigma, MA, USA) was added to each sample to further dilute the compound concentration and assess the reversibility of the sperm immobilization effect. Sperm were incubated for an additional 60 mins at 37°C. After this sperm “recovery” period, motility was re-evaluated with manual counting and calculated as: %SpermMotility=TotalMotileSperm/TotalMotile+immobileSperm*100."}, "sperm [6]": {"tested_on": "sperm", "experiment": "Sander-Cramer assay, 1:6 semen:compound, with recovery", "format": "cell-based, human", "settings": "for MEC after recovery ± SD: 1:6 semen:compound, diluted with 1 mL inhibitor-free media, 60 mins; for MEC ± SD: 30 sec exposure, 1:6 dilution ratio (50 μL semen + 250 μL compound)", "protocol": "as §1, §2, §3"}, "[7]": {"experiment": "Lactic acid titration of simulated vaginal and seminal fluids (pH)", "format": "physicochemical", "settings": "for pH reached: same LA concentration (24 mM)", "protocol": "The amount of lactic acid necessary for contraceptive efficacy was estimated by measuring solution pH. Simulated vaginal and seminal fluids, with physiologically-representative buffer capacities, were prepared as previously described by Rastogi et al.[43] Simulated vaginal fluid (SVF) was mixed with seminal fluid simulant (SFS) in a 1:5 ratio to represent potential fluid volumes during intercourse."}}, "note": "Several values for one entry are separate records, joined by “and”; a condition that tells them apart may be missing. Equal values may be shown once. Read-outs that look alike come from different tables or passages of the source."}
{"smiles": "CCCCCCCCCCCC(=O)OCC(O)CO", "note": "(stereo not drawn) [GML, glycerol monolaurate]", "values": [{"measurement": "Time to immobilize all sperm", "setting": "sperm [1]; at 20 mg/mL, 1:1 dilution ratio", "result": 10, "unit": "min"}, {"measurement": "Concentration completely immobilizing sperm", "setting": "sperm [1]; incubation 30–120 mins, 1:1 dilution ratio", "result": 2, "unit": "mg/mL"}, {"measurement": "Critical micelle concentration (CMC)", "setting": "[2]", "result": 16.4, "unit": "µg/mL"}, {"measurement": "solubility at 24 h", "setting": "[3]; acetone, organic solvent or mixture", "result": "255.2 ± 1.74", "unit": "mg/mL"}, {"measurement": "solubility at 24 h", "setting": "[3]; ethanol, organic solvent or mixture, EtOH", "result": "271 ± 18", "unit": "mg/mL"}, {"measurement": "solubility at 24 h", "setting": "[3]; methanol, organic solvent or mixture, MeOH", "result": "278 ± 45.2", "unit": "mg/mL"}, {"measurement": "solubility at 24 h", "setting": "[3]; simulated vaginal fluid with 2% Solutol, pH 4.2, aqueous with cosolvent or surfactant or cyclodextrin, SVF (w/ 2% solutol)", "result": "3.25 ± 0.45", "unit": "mg/mL"}, {"measurement": "solubility at 24 h", "setting": "[3]; water", "result": "4.48 ± 0.12", "unit": "mg/mL"}, {"measurement": "Concentrations considered non-cytotoxic", "setting": "[4]", "result": "≤ 0.02", "unit": "mg/mL"}, {"measurement": "Concentrations significantly decreasing cell viability", "setting": "[4]", "result": "≥ 0.2", "unit": "mg/mL"}, {"measurement": "MEC after recovery", "setting": "sperm [5]; 1:1 semen:compound, diluted with 1 mL inhibitor-free media, 60 mins", "result": "1.7 ± 0.9", "unit": "mg/mL"}, {"measurement": "MEC", "setting": "sperm [5]", "result": "55 ± 5.8", "unit": "mg/mL"}, {"measurement": "Concentration above which compound visibly precipitated", "setting": "sperm [6]; 0.9% saline", "result": "above 0.2 mg/mL"}, {"measurement": "MEC after recovery ± SD", "setting": "sperm [6]", "result": "1.7 ± 0.9 mg/mL and 1.7 ± 0.9^γ mg/mL"}, {"measurement": "MEC ± SD", "setting": "sperm [6]", "result": "45 ± 5.5", "unit": "mg/mL"}]}
{"smiles": "CC(O)C(=O)O", "note": "(stereo not drawn) [LA, lactic acid]", "values": [{"measurement": "MEC", "setting": "sperm [1]; following 10 mins, persisting during 120 mins, 1:1 dilution ratio", "result": 10, "unit": "mg/mL"}, {"measurement": "Concentration inducing immediate sperm immobilization", "setting": "sperm [1]; summary statement", "result": 10, "unit": "mg/mL"}, {"measurement": "MEC", "setting": "sperm [1]; within 30 sec, 1:1 dilution ratio", "result": 20, "unit": "mg/mL"}, {"measurement": "MEC", "setting": "sperm [5]", "result": 18, "unit": "mg/mL"}, {"measurement": "MEC after recovery ± SD", "setting": "sperm [6]", "result": 9, "unit": "mg/mL"}, {"measurement": "MEC ± SD", "setting": "sperm [6]", "result": 9, "unit": "mg/mL"}, {"measurement": "LA concentration at which mixture pH reached 4.2", "setting": "[7]; 1:5 mixture of SVF and SFS", "result": "24 mM and 2.16 mg/mL"}, {"measurement": "pH reached", "setting": "[7]; SSF alone", "result": 3.37}, {"measurement": "pH reached", "setting": "[7]; SVF alone", "result": 3.67}]}
